The source of these data is patent publication US9351918B2, “Polyglycerol-azelaic acid polyesters for cosmetic applications” (GIULIANI S.P.A., priority 2012, dated 2016).

Structures are written as SMILES.

The test system of series [1] is TNF-α gene expression in human keratinocytes NCTC 2544. Briefly: Test of irritancy potential in NCTC2544: TNF-α gene expression by RT-PCR, compared with LPS positive control. To be noted: 20 μM, 24 hours. It is filed as cell-based. On the procedure: The irritant potential of the derivative (POLY-AZ) was also determined in vitro compared with a positive control (cells treated with 5 μg/ml of lipopolysaccharide). The results were compared with those obtained using azelaic acid (AZ-ACID) in the same experimental model.
(§1) The TNF-α gene expression in NCTC 2544 was evaluated using RT-PCR.
Test of Irritancy Potential in NCTC2544
When the cells (human keratinocytes NCTC 2544) reached approximately 80% confluence, they were separated with trypsin/EDTA and seeded at a density of 1×10^6 cells/ml in a 12-well plate and then incubated at 37° C., 5% CO2 (24 hours).
Day 2: 24-Hour Exposure to Substances […]
(§2) The extracted and quantified total RNA was amplified using the “High Capacity cDNA Reverse Transcription Kit” (Applied Biosystems). […]
(§3) The relative quantification method was used which compares the relative concentration of the gene of interest (target) in unknown samples to a calibrator or control sample (untreated cells). […]
(§4) The data provided by the Stratagene Mx3000P tool was recorded by the MXpro v.4.01 software. […]
The TNF-α gene expression in NCTC 2544 cells was also evaluated after treatments with 20 μM of polyglyceryl-3-azelaiate and 20 μM of azelaic acid compared with cells treated with LPS (5 μg/ml) in the culture medium, in order to compare the effects of these compounds against a known irritant agent (LPS). […]

The test system is the same in series [2]. Briefly: Anti-inflammatory test on NCTC2544: TNF-α gene expression by RT-PCR with LPS from E. coli. It is filed as cell-based. The settings on record: 20 μM together with LPS 5 μg/ml, 24 hours. The method, then: The anti-inflammatory effects were investigated of polyglyceryl-3 azelaiate oligomers (POLY-AZ) obtained with the method in Example 1 in an in vitro model of inflammation on human keratinocytes NCTC2544, and using lipopolysaccharide
(LPS) from E. coli to mediate inflammation or irritation. The effect of the derivative in the models used was compared with that of azelaic acid (AZ-ACID), a known anti-inflammatory agent.
as §1
There are four phases to the gene expression analysis:
1. Treatment of cells with active compounds for 16, 24 and 48 hours; […]
as §2, §3, §4
Following the preliminary model validation experiment described above, the TNF-α gene expression was evaluated using RT-PCR on NCTC 2544 cells, after treatments with 20 μM of polyglyceryl-3-azelaiate and 20 μM of azelaic acid together with LPS at 5 μg/ml in the culture medium to evaluate the anti-inflammatory effect of the two compounds. […]

With `O=C(O)CCCCCCCC(=O)O` [azelaic acid, nonanedioic acid], the Irritancy potential entry in series [1] was “neither are irritating”. Besides, the “Inhibitory effect on TNF-α gene expression (anti-inflammatory effect)” value in series [2] is “does not produce an inhibitory effect”.
